The values below come from patent publication US20100120763A1, “IMIDAZO[5,1-C][1,2,4]BENZOTRIAZINE DERIVATIVES AS INHIBITORS OF PHOSPHODIESTERASES” (priority 2008, published 2010).

SMILES strings stand for the structures.

The target in one assay is T1, PDE10A (Homo sapiens, UniProt Q9Y233).
T1 construct: made in house; host or cells: SF21 insect cells (baculovirus)
Put plainly: Inhibition of recombinant PDE10A (baculovirus/SF21 system), [3H]-cAMP SPA. The format is biochemical. The following applies: recombinant PDE10A1, cytosolic; 0.1 μM [3H]-cAMP, 37° C., 30 minutes; read-out: PDE10A IC50. On the procedure:
Inhibition of Recombinant PDE10A (Baculovirus/SF21 System)
The gene was than inserted into a baculovirus vector, ligated with the baculovirus DNA. The enzyme-protein was expressed in SF21-cells. The enzyme was isolated from these cells by harvesting the cells by an centrifugation at 500 g to collect the cells.
The cells were resuspended in 50 mM Tris-HCl/1 mM EDTA/250 mM Sucrose buffer, pH=7.4 (Sigma, Deisenhofen, Germany; Merck, Darmstadt, Germany) and lysed by sonification of the cells (three times for 15 seconds, Labsonic U, Fa. Braun, Degersheim, Switzerland, level “high”). The cytosolic PDE10A was obtained by a centrifugation at 48,000 g for 1 h in the supernatant and stored at −70° C.
PDE activity was determined in a one step procedure in microtiter plates. The reaction mixture of 100 μl contained 50 mM Tris-HCl/5 mM MgCl2 buffer (pH=7.4, Sigma, Deisenhofen, Germany; Merck, Darmstadt, Germany) 0.1 μM [3H]-cAMP (Amersham, Buckinghamshire, UK) and the enzyme. Non-specific enzyme activity was determined without the enzyme. The reaction was initiated by addition of the substrate solution and was carried out at 37° C. for 30 minutes. Enzymatic activity then was stopped by addition of 25 μl Ysi-SPA-beads (Amersham-Pharmacia). One hour later the mixture was measured in a liquid scintillation counter for microtiter plates (Microbeta Trilux). The Biomek 2000 (Beckman) was used routinely for pipetting of the incubation mixture. […] For determination of IC50 values the Hill-plot, 2-parameter-model, was used.

The next assay addresses T2, PDE2A (Homo sapiens, UniProt O00408).
T2 construct: made in house; host or cells: SF21 insect cells (baculovirus)
Put plainly: Inhibition of recombinant PDE2A (expressed in baculovirus/SF21-cells), [3H]-cAMP SPA. The format is biochemical. As to the method: Inhibition of Recombinant PDE2A (Expressed in Baculovirus/SF21-Cells)
PDE2A (NM002599) was cloned and the gene was inserted in the baculovirus and the enzyme-protein expressed in SF21-cells. The enzyme was isolated from these cells by harvesting the cells by an centrifugation at 200 g to collect the cells. The cells were resuspended in 50 mM Tris-HCl/5 mM MgCl2 buffer (pH=7.4) (Sigma, Deisenhofen, Germany; Merck, Darmstadt, Germany) and lysed by a sonication of the cells (three times for 15 seconds, Labsonic U, Fa. Braun, Degersheim, Switzerland, level “high”). The membrane fraction of PDE2A was obtained by a centrifugation at 48 000 g for 1 h, resuspended in buffer and stored at −70° C.
PDE2A activity was determined in a one step procedure in microtiterplates. The reaction mixture of 100 μl contained 50 mM Tris-HCl/5 mM MgCl2 buffer (pH=7.4) (Sigma, Deisenhofen, Germany; Merck, Darmstadt, Germany), 0.5 μM [3H]-cAMP (Amersham, Buckinghamshire, UK), 1000 nM cGMP and the enzyme. Non-specific enzyme activity was tested in the absence of cGMP. The reaction was initiated by addition of the substrate solution and was carried out at 37° C. for 30 minutes. Enzymatic activity then was stopped by addition of 25 μl SPA-beads (Amersham-Pharmacia). One hour later the mixture was measured in a liquid scintillation counter for microtiterplates (Microbeta Trilux). For pipetting of the incubation mixture the robot Biomek (Fa. Beckman) was routinely used.
For determination of IC50 values the Hill-plot, 2-parameter-model, was used.

T1 sequence (Q9Y233 1-779 isoform Q9Y233-1): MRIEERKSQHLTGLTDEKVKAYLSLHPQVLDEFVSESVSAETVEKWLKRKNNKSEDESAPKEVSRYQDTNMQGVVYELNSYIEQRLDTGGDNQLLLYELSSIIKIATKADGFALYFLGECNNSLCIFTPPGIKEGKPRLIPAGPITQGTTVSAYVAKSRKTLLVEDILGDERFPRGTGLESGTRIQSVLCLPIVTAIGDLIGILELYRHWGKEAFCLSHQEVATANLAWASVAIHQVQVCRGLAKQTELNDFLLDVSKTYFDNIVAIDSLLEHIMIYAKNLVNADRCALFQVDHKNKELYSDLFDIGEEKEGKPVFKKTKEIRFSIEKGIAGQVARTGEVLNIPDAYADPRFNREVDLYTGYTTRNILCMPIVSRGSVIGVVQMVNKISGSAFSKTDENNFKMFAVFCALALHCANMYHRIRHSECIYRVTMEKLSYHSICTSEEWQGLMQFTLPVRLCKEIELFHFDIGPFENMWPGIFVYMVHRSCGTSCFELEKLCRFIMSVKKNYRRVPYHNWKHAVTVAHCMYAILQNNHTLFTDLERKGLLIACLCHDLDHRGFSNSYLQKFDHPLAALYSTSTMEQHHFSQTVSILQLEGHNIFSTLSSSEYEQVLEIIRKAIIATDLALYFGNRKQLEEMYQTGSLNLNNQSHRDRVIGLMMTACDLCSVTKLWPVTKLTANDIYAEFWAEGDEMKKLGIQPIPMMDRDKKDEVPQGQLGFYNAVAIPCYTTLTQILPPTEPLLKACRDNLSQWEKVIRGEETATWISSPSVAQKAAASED
T2 sequence (O00408 whole entry): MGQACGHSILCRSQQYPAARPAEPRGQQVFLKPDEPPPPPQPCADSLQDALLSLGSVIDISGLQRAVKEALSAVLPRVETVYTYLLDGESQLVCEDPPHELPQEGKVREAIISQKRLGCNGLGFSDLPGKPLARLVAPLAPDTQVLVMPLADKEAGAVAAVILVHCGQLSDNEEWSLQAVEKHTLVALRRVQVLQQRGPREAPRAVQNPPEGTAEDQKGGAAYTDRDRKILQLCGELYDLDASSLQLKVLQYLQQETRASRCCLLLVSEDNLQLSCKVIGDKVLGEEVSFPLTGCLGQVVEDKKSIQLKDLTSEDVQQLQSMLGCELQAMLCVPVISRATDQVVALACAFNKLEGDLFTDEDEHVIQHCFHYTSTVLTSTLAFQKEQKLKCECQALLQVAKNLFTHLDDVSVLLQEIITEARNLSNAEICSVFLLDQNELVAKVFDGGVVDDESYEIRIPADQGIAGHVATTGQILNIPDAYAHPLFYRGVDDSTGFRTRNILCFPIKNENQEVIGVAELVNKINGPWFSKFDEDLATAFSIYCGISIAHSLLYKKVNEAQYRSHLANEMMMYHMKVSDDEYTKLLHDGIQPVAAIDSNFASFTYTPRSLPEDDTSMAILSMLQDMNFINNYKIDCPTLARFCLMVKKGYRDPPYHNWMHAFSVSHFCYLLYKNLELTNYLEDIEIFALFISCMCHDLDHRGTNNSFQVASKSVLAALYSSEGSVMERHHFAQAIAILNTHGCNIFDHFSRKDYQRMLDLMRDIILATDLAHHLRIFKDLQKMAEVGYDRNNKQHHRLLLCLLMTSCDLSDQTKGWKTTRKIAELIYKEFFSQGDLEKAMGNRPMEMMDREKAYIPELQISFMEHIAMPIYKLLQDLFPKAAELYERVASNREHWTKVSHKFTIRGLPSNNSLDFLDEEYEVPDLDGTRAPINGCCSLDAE

Consider `COc1cccc2c1nnc1c(C)nc(-c3ccccc3Cl)n12` [Example 61, 1-(2-chlorophenyl)-6-methoxy-3-methylbenzo[e]imidazo[5,1-c][1,2,4]triazine], for which the IC50 (commonly the concentration at which inhibition is half-maximal) at PDE10A worked out at 2.41 nM; at PDE2A, 103 nM.
For `Cc1cn(-c2ccc3nnc4c(C)nc(CC(C)C)n4c3c2)c(CC(C)C)n1` [Example 182, 1-Isobutyl-8-(2-isobutyl-4-methyl-imidazol-1-yl)-3-methyl-imidazo[5,1-c][1,2,4]benzotriazine] the same measures were 32.8 nM and 134 nM.
On the same counts, the results for `COc1cc(N2CCOCC2)cc2c1nnc1c(C)nc(-c3ccccc3C)n12` [Example 66, 6-methoxy-3-methyl-1-(2-methylphenyl)-8-morpholin-4-ylimidazo[1,5-c][1,2,4]benzotriazine] are 1.53 nM and 110 nM.
For the molecule `COc1cccc2c1nnc1c(C)nc(-c3ccccc3C)n12` [Example 60, 6-methoxy-3-methyl-1-(2-methylphenyl)imidazo[5,1-c][1,2,4]benzotriazine], the IC50 on PDE10A was 3.31 nM; at PDE2A, 172 nM.
For `COc1cc(F)cc2c1nnc1c(C)nc(-c3cc(F)ccc3C)n12` [Example 103, 8-fluoro-1-(5-fluoro-2-methylphenyl)-6-methoxy-3-methylimidazo[5,1-c][1,2,4]benzotriazine], the IC50 at PDE10A was 4.72 nM; at PDE2A it was 435 nM.
On the same counts, the results for `COc1cc(F)cc2c1nnc1c(C)nc(-c3cnc(F)c(C)c3)n12` [Example 121, 8-fluoro-1-(6-fluoro-5-methylpyridin-3-yl)-6-methoxy-3-methylimidazo[5,1-c][1,2,4]benzotriazine] are 133 nM and above 1000 nM.
For `COc1cc(F)cc2c1nnc1c(C)nc(-c3cc(Cl)ccc3C)n12` [Example 104, 1-(5-chloro-2-methylphenyl)-8-fluoro-6-methoxy-3-methylimidazo[5,1-c][1,2,4]benzotriazine] the same measures were 5.37 nM and 171 nM.
Consider `Cc1nc(-c2ccccc2Cl)n2c1nnc1ccc(N3CCCCC3)cc12` [Example 183, 1-(2-Chloro-phenyl)-3-methyl-8-piperidin-1-yl-imidazo[5,1-c][1,2,4]benzotriazine], for which the results for the IC50 on PDE10A and at PDE2A were 12.1 nM and 7.79 nM, respectively.
As to `COc1cc(F)c2nnc3c(C)nc(-c4cc(C)ccc4Cl)n3c2c1` [Example 72, 1-(2-chloro-5-methylphenyl)-6-fluoro-8-methoxy-3-methylimidazo[5,1-c][1,2,4]benzotriazine], the results for the IC50 on PDE10A and on PDE2A were 7.77 nM and 14.4 nM, respectively.
As to `COc1cc(F)cc2c1nnc1c(C)nc(-c3cc(OC(F)(F)F)ccc3Cl)n12` [Example 125, 1-[2-chloro-5-(trifluoromethoxy)phenyl]-8-fluoro-6-methoxy-3-methylimidazo[5,1-c][1,2,4]benzotriazine], the IC50 on PDE10A was determined as 12.1 nM; on PDE2A, 117 nM.
In the case of `COc1ccc(Cl)c(-c2nc(C)c3nnc4c(F)cc(OC)cc4n23)c1` [Example 78, 1-(2-chloro-5-methoxyphenyl)-6-fluoro-8-methoxy-3-methylimidazo[5,1-c][1,2,4]benzotriazine], the results for the IC50 on PDE10A and on PDE2A were 8.51 nM and 3.32 nM, respectively.
For `COc1cccc(-c2nc(C)c3nnc4c(OC)cc(F)cc4n23)c1` [Example 99, 8-fluoro-6-methoxy-1-(3-methoxyphenyl)-3-methylimidazo[5,1-c][1,2,4]benzotriazine] the same measures were 9.11 nM and 20000 nM.
For `COc1cc(F)c2nnc3c(C)nc(-c4cccnc4)n3c2c1` [Example 90, 6-fluoro-8-methoxy-3-methyl-1-pyridin-3-ylimidazo[5,1-c][1,2,4]benzotriazine], the IC50 on PDE10A amounted to 386 nM; at PDE2A, 585 nM.
On the same counts, the results for `Cc1nc(-c2cc(Cl)ccc2Cl)n2c1nnc1ccc(N3CCOCC3)cc12` [Example 181, 1-(2,5-Dichloro-phenyl)-3-methyl-8-morpholin-4-yl-imidazo[5,1-c][1,2,4]benzotriazine] are 24.3 nM and 2.3 nM.
